In ChEMBL document CHEMBL4732191, “Synthesis of novel potent cytotoxicy podophyllotoxin-naphthoquinone compounds via microwave-assited multicomponent domino reactions” (Bioorg Med Chem Lett, 2021):

Columns and labels:
HEK293 = test: Cytotoxicity against human HEK293 cells; type: cell-based
SK-LU-1 = test: Cytotoxicity against human SK-LU-1 cells; type: functional, cell-based
KB = test: Cytotoxicity against human KB cells; type: functional, cell-based
HepG2 = test: Cytotoxicity against human HepG2 cells; type: functional, cell-based
MCF7 = test: Cytotoxicity against human MCF7 cells; type: functional, cell-based
[1] = Selectivity index, ratio of IC50 for human HEK293 cells to IC50 for human SK-LU-1 cells
[2] = Selectivity index, ratio of IC50 for human HEK293 cells to IC50 for human HepG2 cells; type: toxicity; conditions: HEK293 cells and HepG2 cells, read-out: Ratio IC50

Row | Compound | IC50 (HEK293) [µM] | IC50 (SK-LU-1) [µM] | IC50 (KB) [µM] | IC50 (HepG2) [µM] | IC50 (MCF7) [µM] | Ratio IC50 [1] | selectivity ratio [2]
1 | COc1ccc(C2C3=C(COC3=O)NC3=C2C(=O)c2ccccc2C3=O)cc1 (stereo not drawn) | 8.17 | 0.88 | 0.88 | 2.06 | > 2.5 | – | –
2 | Cc1c2ccncc2c(C)c2c1[nH]c1ccccc12 [ELLIPTECINE] | 1.69 | 1.54 | 1.75 | 1.66 | 1.58 | – | –
3 | O=C1OCC2=C1C(c1ccccc1)C1=C(N2)C(=O)c2ccccc2C1=O (stereo not drawn) | 1.34 | < 0.044 | 1.54 | < 0.044 | 1.98 | >=200 | ≥ 200
4 | O=C1OCC2=C1C(c1ccc3ccccc3c1)C1=C(N2)C(=O)c2ccccc2C1=O (stereo not drawn) | 7.61 | 1.02 | > 2.5 | 1.68 | > 2.5 | – | –
5 | O=C1OCC2=C1C(c1ccc(F)cc1)C1=C(N2)C(=O)c2ccccc2C1=O (stereo not drawn) | 5.35 | 0.28 | 2.16 | 0.44 | > 2.5 | – | –
6 | COc1cc(C2C3=C(COC3=O)NC3=C2C(=O)c2ccccc2C3=O)ccc1O (stereo not drawn) | 1.41 | 0.41 | 1.9 | 0.41 | > 2.5 | – | –
7 | O=C1OCC2=C1C(c1cccc3ccccc13)C1=C(N2)C(=O)c2ccccc2C1=O (stereo not drawn) | 14.7 | > 2.5 | > 2.5 | > 2.5 | > 2.5 | – | –
8 | O=C1OCC2=C1C(c1ccc(Cl)cc1)C1=C(N2)C(=O)c2ccccc2C1=O (stereo not drawn) | 5.89 | 0.5 | 1.46 | 1.35 | > 2.5 | – | –
9 | O=C1OCC2=C1C(c1ccccc1F)C1=C(N2)C(=O)c2ccccc2C1=O (stereo not drawn) | 10.3 | 0.28 | 1.19 | 0.42 | > 2.5 | – | –
10 | Cc1ccc(C2C3=C(COC3=O)NC3=C2C(=O)c2ccccc2C3=O)cc1 (stereo not drawn) | 21.6 | 1.65 | > 2.5 | 2.24 | > 2.5 | – | –
11 | O=C1OCC2=C1C(c1ccc3c(c1)C(=O)OC3)C1=C(N2)C(=O)c2ccccc2C1=O (stereo not drawn) | 4.78 | 0.08 | 1.86 | 0.47 | > 2.5 | – | –
12 | O=C1OCC2=C1C(c1cccc(Br)c1)C1=C(N2)C(=O)c2ccccc2C1=O (stereo not drawn) | 7.2 | < 0.036 | 1.71 | < 0.036 | > 2.5 | >=200 | ≥ 200
13 | O=C1OCC2=C1C(c1ccccc1[N+](=O)[O-])C1=C(N2)C(=O)c2ccccc2C1=O (stereo not drawn) | 9.95 | 2.22 | 2.34 | > 2.5 | > 2.5 | – | –
14 | O=C1OCC2=C1C(c1cccc([N+](=O)[O-])c1)C1=C(N2)C(=O)c2ccccc2C1=O (stereo not drawn) | 1.47 | < 0.039 | 1.16 | < 0.039 | 2.19 | >=200 | ≥ 200
15 | O=C1OCC2=C1C(c1ccc(Br)cc1)C1=C(N2)C(=O)c2ccccc2C1=O (stereo not drawn) | 8.27 | 0.45 | 2.14 | 1.5 | > 2.5 | – | –
16 | O=C1OCC2=C1C(c1ccc(C(F)(F)F)cc1)C1=C(N2)C(=O)c2ccccc2C1=O (stereo not drawn) | 7.59 | 0.51 | 0.8 | 1.24 | > 2.5 | – | –
17 | COc1cccc(C2C3=C(COC3=O)NC3=C2C(=O)c2ccccc2C3=O)c1 (stereo not drawn) | 9.35 | < 0.04 | 1.23 | 0.46 | > 2.5 | >=200 | ≥ 200
